What follows are compounds tested against T1, CMKLR1 (Homo sapiens, UniProt Q99788) (assay: Calcium mobilization assay (CHO-Ga16-CMKLR1 cells, chemerin-9 induced signal)). Conditions: Table 2, IC50 class, calcium signal induced by 2.5 nM chemerin-9.
T1 construct: expressed in transfected cells; host or cells: CHO-K1 cells expressing Gα-16 (CHO-Ga16-CMKLR1)
T1 sequence (Q99788 1-373): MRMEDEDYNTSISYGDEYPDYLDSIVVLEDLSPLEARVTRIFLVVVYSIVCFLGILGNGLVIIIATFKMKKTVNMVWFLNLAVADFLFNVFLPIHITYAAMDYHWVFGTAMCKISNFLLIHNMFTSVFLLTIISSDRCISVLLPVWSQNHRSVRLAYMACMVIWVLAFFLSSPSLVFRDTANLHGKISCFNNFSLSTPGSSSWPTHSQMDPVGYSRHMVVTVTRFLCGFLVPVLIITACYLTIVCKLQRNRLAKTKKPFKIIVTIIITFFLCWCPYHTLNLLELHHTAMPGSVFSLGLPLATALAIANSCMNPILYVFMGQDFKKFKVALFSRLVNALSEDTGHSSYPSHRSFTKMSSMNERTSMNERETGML
Format: cell-based
Procedure: To establish a CMKLR1 calcium mobilization cell evaluation system, CHO-K1 cells expressing Gα-16 were transfected with pcDNA3.1-derived human CMKLR1-expressing plasmids using Lipofectamine 2000 (Invitrogen, Waltham, Massachusetts, USA). […] The established cell line (CHO-Ga16-CMKLR1) was cultured in F-12 medium (Invitrogen) supplemented with 10% (v/v) fetal bovine serum (FBS; Invitrogen), 0.5 mg/mL geneticin, 0.2 mg/mL hygromycin B (Clontech), and 1% (v/v) antibiotic-antimycotic solution (Invitrogen) under 5% CO2 at 37°C.
100 µL/well was added to a 96-well plate (Corning) and incubated for 24 h. The buffer solution was prepared by adding 1 M HEPES solution to Hanks' Balanced Salt Solution (HBSS) (Invitrogen) and adjusting the pH to 7.4 by dropwise addition of 1 M NaOH.
The fluorescent dye solution was prepared using the buffer provided with the Calcium 5 Assay Kit (Molecular Devices). 40 µL/well of dye solution was added to each well and incubated at 37°C in a 5% CO2 atmosphere for 30 min. […] The final DMSO concentration was adjusted to 2%. 40 µL of each compound solution was added to the well and incubated for 30 min. […] Prism 5 software (GraphPad) was then used to obtain IC50 values for various compounds. IC50 values were derived based on concentration-response curves, and all experiments were repeated at least three times.
`CC(CC(=O)O)c1ccc(OCc2ccc3c(-c4ccc(-c5ccccc5)cc4)nn(C4CCCC4)c3c2)cc1` (stereo not drawn) [Compound 24, 3-(4-((3-([1,1'-biphenyl]-4-yl)-1-cyclopentyl-1H-indazol-6-yl)methoxy)phenyl)butanoic acid] was tested, and the IC50 was > 1 µM. With `Cc1ccc(-c2nn(C3CCCC3)c3cc(COc4ccc(C(C)CC(=O)O)cc4)ccc23)cc1` (stereo not drawn) [Compound 11, 3-(4-((1-cyclopentyl-3-(p-tolyl)-1H-indazol-6-yl)methoxy)phenyl)butanoic acid] the IC50 was > 1 µM. With `CCOc1ccc(-c2nn(C3CCCC3)c3cc(COc4ccc(C(C)CC(=O)O)cc4)ccc23)cc1` (stereo not drawn) [Compound 29, 3-(4-((1-cyclopentyl-3-(4-ethoxyphenyl)-1H-indazol-6-yl)methoxy)phenyl)butanoic acid] the IC50 was > 1 µM. In the case of `CC(CC(=O)O)c1ccc(OCc2ccc3c(-c4ccncc4)nn(C4CCCC4)c3c2)cc1` (stereo not drawn) [Compound 23, 3-(4-((1-cyclopentyl-3-(pyridin-4-yl)-1H-indazol-6-yl)methoxy)phenyl)butanoic acid], the IC50 is reported as > 1 µM. `CC(CC(=O)O)c1ccc(OCc2ccc3c(-c4cccc(O)c4)nn(C4CCCC4)c3c2)cc1` (stereo not drawn) [Compound 14, 3-(4-((1-cyclopentyl-3-(3-hydroxyphenyl)-1H-indazol-6-yl)methoxy)phenyl)butanoic acid] was tested, and the IC50 was > 1 µM. With `CC(CC(=O)O)c1ccc(OCc2ccc3c(-c4ccc(OC/C=C/C(=O)O)cc4)nn(C4CCCC4)c3c2)cc1` (stereo not drawn) [Compound 28, (E)-4-(4-(6-((4-(1-carboxypropan-2-yl)phenoxy)methyl)-1-cyclopentyl-1H-indazol-3-yl)phenoxy)but-2-enoic acid] the IC50 was > 1 µM.

Same assay, conditions: Table 3, IC50 class, calcium signal induced by 2.5 nM chemerin-9
Work on `C[C@@H](CC(=O)O)c1ccc(OCc2ccc3c(-c4ccc(C(=O)O)cc4)nn(C4CCCC4)c3c2)cc1` [Compound 51, (S)-4-(6-((4-(1-carboxypropan-2-yl)phenoxy)methyl)-1-cyclopentyl-1H-indazol-3-yl)benzoic acid] yielded an IC50 of 0.1 to 1 µM. For `CC(CC(=O)O)c1ccc(OCc2ccc3c(-c4nnn[nH]4)nn(C4CCCC4)c3c2)cc1` (stereo not drawn) [Compound 32, 3-(4-((1-cyclopentyl-3-(1H-tetrazol-5-yl)-1H-indazol-6-yl)methoxy)phenyl)butanoic acid], the IC50 was > 1 µM. With `C[C@@H](CC(=O)O)c1ccc(OCc2ccc3c(-c4cc(Cl)c(O)cc4Cl)nn(C4CCCC4)c3c2)cc1` [Compound 46, (S)-3-(4-((1-cyclopentyl-3-(2,5-dichloro-4-hydroxyphenyl)-1H-indazol-6-yl)methoxy)phenyl)butanoic acid] the IC50 was 0.1 to 1 µM. In the case of `C[C@@H](CC(=O)O)c1ccc(OCc2ccc3c(-c4ccc(O)cc4Cl)nn(C4CCCC4)c3c2)cc1` [Compound 42, (S)-3-(4-((3-(2-chloro-4-hydroxyphenyl)-1-cyclopentyl-1H-indazol-6-yl)methoxy)phenyl)butanoic acid], the IC50 is reported as 0.1 to 1 µM. `C[C@@H](CC(=O)O)c1ccc(OCc2ccc3c(-c4cc(F)c(O)cc4F)nn(C4CCCC4)c3c2)cc1` [Compound 45, (S)-3-(4-((1-cyclopentyl-3-(2,5-difluoro-4-hydroxyphenyl)-1H-indazol-6-yl)methoxy)phenyl)butanoic acid] gave an IC50 of 0.1 to 1 µM. In the case of `C[C@@H](CC(=O)O)c1ccc(OCc2ccc3c(-c4cc(F)c(CO)c(F)c4)nn(C4CCCC4)c3c2)cc1` [Compound 47, (S)-3-(4-((1-cyclopentyl-3-(3,5-difluoro-4-(hydroxymethyl)phenyl)-1H-indazol-6-yl)methoxy)phenyl)butanoic acid], the IC50 is reported as < 0.1 µM. With `CC(CC(=O)O)c1ccc(OCc2ccc3c(-c4ccc5c(c4)OCO5)nn(C4CCCC4)c3c2)cc1` (stereo not drawn) [Compound 31, 3-(4-((3-(Benzo[d][1,3]dioxol-5-yl)-1-cyclopentyl-1H-indazol-6-yl)methoxy)phenyl)butanoic acid] the IC50 was > 1 µM. `CC(CC(=O)O)c1ccc(OCc2ccc3c(-c4cc(Cl)nc(Cl)c4)nn(C4CCCC4)c3c2)cc1` (stereo not drawn) [Compound 33, 3-(4-((1-cyclopentyl-3-(2,6-dichloropyridin-4-yl)-1H-indazol-6-yl)methoxy)phenyl)butanoic acid] was tested, and the IC50 was > 1 µM. `CC(CC(=O)O)c1ccc(OCc2ccc3c(-c4cc(F)c(/C=N/O)c(F)c4)nn(C4CCCC4)c3c2)cc1` (stereo not drawn) [Compound 34, (E)-3-(4-((1-cyclopentyl-3-(3,5-difluoro-4-((hydroxyimino)methyl)phenyl)-1H-indazol-6-yl)methoxy)phenyl)butanoic acid] showed an IC50 of 0.1 to 1 µM.

Same assay, conditions: Table 4, IC50 class, calcium signal induced by 2.5 nM chemerin-9
For `C[C@@H](CC(=O)O)c1ccc(OCc2ccc3c(-c4ccc(O)c(F)c4F)nn(C4CCCC4)c3c2)cc1` [Compound 55, (S)-3-(4-((1-cyclopentyl-3-(2,3-difluoro-4-hydroxyphenyl)-1H-indazol-6-yl)methoxy)phenyl)butanoic acid], the IC50 was > 1 µM. In the case of `CC(CC(=O)O)c1ccc(OCc2ccc3c(-c4ccc(N)cc4)nn(C4CCCC4)c3c2)cc1` (stereo not drawn) [Compound 59, 3-(4-((3-(4-aminophenyl)-1-cyclopentyl-1H-indazol-6-yl)methoxy)phenyl)butanoic acid], the IC50 is reported as > 1 µM. `CC(CC(=O)O)c1ccc(OCc2cnc3c(-c4cc(Cl)c(O)c(Cl)c4)nn(C4CCCC4)c3c2)cc1` (stereo not drawn) [Compound 73, 3-(4-((1-cyclopentyl-3-(3,5-dichloro-4-hydroxyphenyl)-1H-pyrazolo[4,3-b]pyridin-6-yl)methoxy)phenyl)butanoic acid] showed an IC50 of 0.1 to 1 µM. For `CC(=O)Nc1ccc(-c2nn(C3CCCC3)c3cc(COc4ccc(C(C)CC(=O)O)cc4)ccc23)cc1` (stereo not drawn) [Compound 61, 3-(4-((3-(4-acetamidophenyl)-1-cyclopentyl-1H-indazol-6-yl)methoxy)phenyl)butanoic acid], the IC50 was > 1 µM. With `CC(CC(=O)O)c1ccc(OCc2cnc3c(-c4cc(F)c(O)c(F)c4)nn(C4CCCC4)c3c2)cc1` (stereo not drawn) [Compound 74, 3-(4-((1-cyclopentyl-3-(3,5-difluoro-4-hydroxyphenyl)-1H-pyrazolo[4,3-b]pyridin-6-yl)methoxy)phenyl)butanoic acid] the IC50 was 0.1 to 1 µM. `CC(CC(=O)O)c1ccc(OCc2cnc3c(-c4ccc(O)c(Cl)c4)nn(C4CCCC4)c3c2)cc1` (stereo not drawn) [Compound 75, 3-(4-((3-(3-chloro-4-hydroxyphenyl)-1-cyclopentyl-1H-pyrazolo[4,3-b]pyridin-6-yl)methoxy)phenyl)butanoic acid] gave an IC50 of 0.1 to 1 µM. In the case of `CC(=O)Nc1ccc(-c2nn(C3CCCC3)c3cc(COc4ccc(C(C)CC(=O)O)cc4)ccc23)cc1` (stereo not drawn) [Compound 60, 3-(4-((3-(4-acetamidophenyl)-1-cyclopentyl-1H-indazol-6-yl)methoxy)phenyl)butanoic acid], the IC50 is reported as > 1 µM.

Same assay, conditions: read-out: CMKLR1 activity in CHO cells (% inhibition at 10 µM), 10 µM compound, relative to calcium signal induced by 2.5 nM chemerin-9
`CC(CC(=O)O)c1ccc(OCc2ccc3c(-c4ccccc4)nn(CC4CC4)c3c2)cc1` (stereo not drawn) [Compound 81, 3-(4-((1-(cyclopropylmethyl)-3-phenyl-1H-indazol-6-yl)methoxy)phenyl)butanoic acid] gave an inhibition at 10 µM of 35%. Compound `CC(CC(=O)O)c1ccc(OCc2ccc3c(-c4ccccc4)nn(CC4CCCCC4)c3c2)cc1` (stereo not drawn) [Compound 83, 3-(4-((1-(cyclohexylmethyl)-3-phenyl-1H-indazol-6-yl)methoxy)phenyl)butanoic acid] has an inhibition at 10 µM of 28%. In the case of `CC(C)C(CC(=O)O)c1ccc(OCc2ccc3c(-c4ccccc4)nn(C(C)C)c3c2)cc1` (stereo not drawn) [Compound 8, 3-(4-((1-isopropyl-3-phenyl-1H-indazol-6-yl)methoxy)phenyl)-4-methylpentanoic acid], the inhibition at 10 µM is reported as 25%. Compound `CC(CC(=O)O)c1ccc(OCc2ccc3c(-c4ccccc4)nn(C)c3c2)cc1` (stereo not drawn) [Compound 77, 3-(4-((1-methyl-3-phenyl-1H-indazol-6-yl)methoxy)phenyl)butanoic acid] has an inhibition at 10 µM of 24%. For `CC(CC(=O)O)c1ccc(OCc2ccc3c(-c4ccccc4)nn(C(C)C)c3c2)cc1` (stereo not drawn) [Compound 7, 3-(4-((1-isopropyl-3-phenyl-1H-indazol-6-yl)methoxy)phenyl)butanoic acid], the inhibition at 10 µM was 81%. Compound `CC(C)n1nc(-c2ccccc2)c2ccc(COc3ccc(CC(C)(C)C(=O)O)cc3)cc21` [Compound 3, 3-(4-((1-isopropyl-3-phenyl-1H-indazol-6-yl)methoxy)phenyl)-2,2-dimethylpropanoic acid] has an inhibition at 10 µM of 10%. Work on `CCC(CC(=O)O)c1ccc(OCc2ccc3c(-c4ccccc4)nn(C(C)C)c3c2)cc1` (stereo not drawn) [Compound 9, 3-(4-((1-isopropyl-3-phenyl-1H-indazol-6-yl)methoxy)phenyl)pentanoic acid] yielded an inhibition at 10 µM of 81%. `CC(C)Cn1nc(-c2ccccc2)c2ccc(COc3ccc(C(C)CC(=O)O)cc3)cc21` (stereo not drawn) [Compound 80, 3-(4-((1-isobutyl-3-phenyl-1H-indazol-6-yl)methoxy)phenyl)butanoic acid] showed an inhibition at 10 µM of 52%.
